Laboratory results taken from the NIST ThermoML archive (doi:10.1016/j.jct.2006.02.001).

Assays:
[1] = xn = mol fraction of the nth substance listed; settings: 101 kPa, Liquid
[2] = refractive index (Na D-line) (dimensionless); xn = mol fraction of the nth substance listed; settings: 101 kPa, Liquid

c1ccccc1 [benzene] + COc1ccccc1
x2 = 0
Settings	mass density, 288.15 K [kg/m3]	mass density, 293.15 K [kg/m3]	mass density, 298.15 K [kg/m3]	mass density, 303.15 K [kg/m3]	refractive index, 288.15 K	refractive index, 293.15 K	refractive index, 298.15 K	refractive index, 303.15 K
[1]	884.11	876.53	873.6	868.23	–	–	–	–
[2]	–	–	–	–	1.505	1.5011	1.4979	1.4849

COc1ccccc1 [anisole] + Cc1ccc(C)cc1
Settings	mass density, 288.15 K [kg/m3]	mass density, 293.15 K [kg/m3]	mass density, 298.15 K [kg/m3]	mass density, 303.15 K [kg/m3]	refractive index, 288.15 K	refractive index, 293.15 K	refractive index, 298.15 K	refractive index, 303.15 K
[1], x1 = 0.0994	877.53	873.32	869.02	864.71	–	–	–	–
[1], x1 = 0.2471	896.11	891.85	887.55	883.2	–	–	–	–
[1], x1 = 0.3745	912.51	908.14	903.84	899.38	–	–	–	–
[1], x1 = 0.496	928.51	924.05	919.74	915.2	–	–	–	–
[1], x1 = 0.6455	948.69	944.15	939.83	935.26	–	–	–	–
[1], x1 = 0.7466	962.63	958.06	953.71	949.14	–	–	–	–
[1], x1 = 0.8972	983.79	979.14	974.73	970.18	–	–	–	–
[1], x1 = 0.949	991.13	986.45	981.99	977.4	–	–	–	–
[1], x1 = 0.9772	995.17	990.43	985.95	981.34	–	–	–	–
[1], x1 = 1	998.44	993.65	989.15	984.37	–	–	–	–
[2], x1 = 0.0994	–	–	–	–	1.5007	1.4978	1.4949	1.4935
[2], x1 = 0.2471	–	–	–	–	1.5044	1.5006	1.4978	1.4963
[2], x1 = 0.3745	–	–	–	–	1.5077	1.5032	1.5004	1.4987
[2], x1 = 0.496	–	–	–	–	1.5109	1.5057	1.5029	1.5011
[2], x1 = 0.6455	–	–	–	–	1.5151	1.5089	1.5061	1.5042
[2], x1 = 0.7466	–	–	–	–	1.5179	1.5111	1.5084	1.5064
[2], x1 = 0.8972	–	–	–	–	1.5223	1.5145	1.5118	1.5097
[2], x1 = 0.949	–	–	–	–	1.5239	1.5157	1.5129	1.5107
[2], x1 = 0.9772	–	–	–	–	1.5248	1.5164	1.5136	1.5113
[2], x1 = 1	–	–	–	–	1.5256	1.5169	1.5141	1.5117

Cc1cccc(C)c1 [1,3-dimethylbenzene] + COc1ccccc1
x2 = 0
Settings	mass density, 288.15 K [kg/m3]	mass density, 293.15 K [kg/m3]	mass density, 298.15 K [kg/m3]	mass density, 303.15 K [kg/m3]	refractive index, 288.15 K	refractive index, 293.15 K	refractive index, 298.15 K	refractive index, 303.15 K
[1]	868.32	864.05	859.77	855.47	–	–	–	–
[2]	–	–	–	–	1.4997	1.4973	1.4944	1.4925

Cc1ccccc1C [1,2-dimethylbenzene] + COc1ccccc1
x2 = 0
Settings	mass density, 288.15 K [kg/m3]	mass density, 293.15 K [kg/m3]	mass density, 298.15 K [kg/m3]	mass density, 303.15 K [kg/m3]	refractive index, 288.15 K	refractive index, 293.15 K	refractive index, 298.15 K	refractive index, 303.15 K
[1]	883.29	879.08	875.53	870.73	–	–	–	–
[2]	–	–	–	–	1.5072	1.5047	1.5018	1.5

COc1ccccc1 [anisole] + Cc1cccc(C)c1
Settings	mass density, 288.15 K [kg/m3]	mass density, 293.15 K [kg/m3]	mass density, 298.15 K [kg/m3]	mass density, 303.15 K [kg/m3]	refractive index, 288.15 K	refractive index, 293.15 K	refractive index, 298.15 K	refractive index, 303.15 K
[1], x1 = 0.1006	880.54	876.26	872.02	867.67	–	–	–	–
[1], x1 = 0.2463	898.41	894.1	889.76	885.42	–	–	–	–
[1], x1 = 0.3753	914.55	910.2	905.8	901.39	–	–	–	–
[1], x1 = 0.496	930.02	925.62	921.19	916.71	–	–	–	–
[1], x1 = 0.6398	948.95	944.45	940.02	935.48	–	–	–	–
[1], x1 = 0.7468	963.38	958.8	954.36	949.8	–	–	–	–
[1], x1 = 0.8284	974.53	969.91	965.45	960.86	–	–	–	–
[1], x1 = 0.9034	984.93	980.26	975.77	971.13	–	–	–	–
[1], x1 = 0.9613	993.02	988.29	983.78	979.08	–	–	–	–
[1], x1 = 1	998.44	993.65	989.15	984.37	–	–	–	–
[2], x1 = 0.1006	–	–	–	–	1.5021	1.4992	1.4963	1.4944
[2], x1 = 0.2463	–	–	–	–	1.5055	1.5018	1.499	1.497
[2], x1 = 0.3753	–	–	–	–	1.5086	1.5042	1.5013	1.4993
[2], x1 = 0.496	–	–	–	–	1.5117	1.5065	1.5037	1.5016
[2], x1 = 0.6398	–	–	–	–	1.5155	1.5093	1.5065	1.5044
[2], x1 = 0.7468	–	–	–	–	1.5184	1.5115	1.5088	1.5066
[2], x1 = 0.8284	–	–	–	–	1.5206	1.5132	1.5104	1.5082
[2], x1 = 0.9034	–	–	–	–	1.5228	1.5149	1.5121	1.5098
[2], x1 = 0.9613	–	–	–	–	1.5244	1.5161	1.5133	1.511
[2], x1 = 1	–	–	–	–	1.5256	1.5169	1.5141	1.5117
